The target in one assay is SUMO-activating enzyme (Homo sapiens, UniProt Q9UBT2). Description: SUMOylation inhibitor hit validation, confirmation, SUMOylation inhibitor project, biochemical, AlphaScreen (AID 2018). In kind it is functional. Background: In Alpha technology, singlet oxygen from a donor bead excites a nearby acceptor bead.
For assay [1], the target named is Sphingosine 1-phosphate receptor 2 (Homo sapiens, UniProt O95136). Description: Dose Response Cell Based Assay for Agonists of the S1P2 Receptor. [Related pubchem assays: 729, 736, 843 ]. In kind it is functional.
Assay [2] can be described thus: Luminescence Cell-Based Dose Confirmation HTS to Identify Activators of 5'UTR Stem-Loop Driven Alpha-Synuclein mRNA Translation in H4 Neuroglioblastoma Cells. [Related pubchem assays: 1829 (Project Summary), 1814 (Primary HTS)]. It is filed as functional.
Assay [3] is described as follows: Luminescence Cell-Based Dose Response to Identify Activators of Luciferase Translation or Activity in H4-C Neuroglioblastoma Cells. [Related pubchem assays: 1829 (Project Summary), 1814 (Primary HTS)]. It is filed as functional.
In assay [4] the target is Intestinal-type alkaline phosphatase (Mus musculus, UniProt P24822). Description: PubChem AID 488874. In kind it is functional.
Assay [5] has as its target Intestinal-type alkaline phosphatase (Homo sapiens, UniProt P09923). Description: human IAP inhibitors, dose response, biochemical, luminescent, uHTS hits, set 2 (AID 488793). In kind it is functional.
Another assay deals with Jurkat. Description: antigen receptor-induced NF-kB inhibitors, dose response, Jurkat, luciferase reporter, luminescence, B- and T-cell (AID 489004).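 Note: NF-kB luciferase reporter Jurkat cells stimulated with PMA plus ionomycin.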 It is filed as functional, cell-based. Particulars: Homo sapiens. Background: A reporter such as luciferase makes a cellular process visible.
The target in assay [6] is T1, COUP transcription factor 2 (Homo sapiens, UniProt P24468).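 Note: HEK293 cells transiently cotransfected with COUP-TFII expression vector and reporter; luciferase reporter luminescence driven by COUP-TFII from the pX2-168 reporter plasmid.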
T1 sequence (P24468 whole entry): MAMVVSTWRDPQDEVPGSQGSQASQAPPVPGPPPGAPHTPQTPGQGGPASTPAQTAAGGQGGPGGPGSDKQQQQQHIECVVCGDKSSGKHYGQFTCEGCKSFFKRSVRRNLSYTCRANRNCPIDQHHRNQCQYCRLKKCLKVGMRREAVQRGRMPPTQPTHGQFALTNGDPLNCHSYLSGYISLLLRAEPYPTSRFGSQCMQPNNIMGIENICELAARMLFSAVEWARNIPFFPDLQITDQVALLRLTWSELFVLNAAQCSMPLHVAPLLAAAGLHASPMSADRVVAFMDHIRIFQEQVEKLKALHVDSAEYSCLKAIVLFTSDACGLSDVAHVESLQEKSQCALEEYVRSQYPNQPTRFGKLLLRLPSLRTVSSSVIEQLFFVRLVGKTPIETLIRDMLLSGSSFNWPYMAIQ
Description: Luminescence-based cell-based high throughput dose response assay to identify inhibitors of COUP-TFII (NR2F2). It is filed as functional.

The next assay relates to INS1. Description: beta cell apoptosis inhibitors, cytokine rescue, dose response, luminescence, retest (AID 449756).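 Note: cell death triggered by IL-1 beta plus TNF-alpha plus IFN-gamma mixture; protective hits raise ATP signal compared with cytokine alone wells.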 In kind it is functional, cell-based. Particulars: Rattus norvegicus.
The nature of assay [7]: M. tuberculosis H37Rv growth inhibitors, H37Rv strain (AID 1626). In kind it is functional.
The target of assay [8] is 5-hydroxytryptamine receptor 1A (Homo sapiens, UniProt P08908). In kind it is functional.
Assay [9] has as its target Protein kinase C theta type (Homo sapiens, UniProt Q04759). Description: Navigating the Kinome. Panel member name: PRKCQ. It is filed as functional.
The target of assay [10] is Dual specificity mitogen-activated protein kinase kinase 1 (Homo sapiens, UniProt Q02750). Description: Navigating the Kinome. Panel member name: MAP2K1. It is filed as functional.
Assay [11] concerns the target Serine/threonine-protein kinase TBK1 (Homo sapiens, UniProt Q9UHD2). Description: Navigating the Kinome. Panel member name: TBK1. In kind it is functional.
Assay [12] deals with RAC-gamma serine/threonine-protein kinase (Homo sapiens, UniProt Q9Y243). It is filed as functional.
Assay [13] has as its target 5'-AMP-activated protein kinase catalytic subunit alpha-1 (Homo sapiens, UniProt Q13131). In kind it is functional.
In assay [14] the target is Tyrosine-protein kinase receptor TYRO3 (Homo sapiens, UniProt Q06418). In kind it is functional.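 Note: TYRO3 value obtained as one member of a kinome-wide profiling panel.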
In assay [15] the target is Testis-specific serine/threonine-protein kinase 2 (Homo sapiens, UniProt Q96PF2). In kind it is functional.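 Note: part of the Navigating the Kinome panel, target entry STK22B.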
For assay [16], the target named is Tyrosine-protein kinase Lck (Homo sapiens, UniProt P06239). It is filed as functional.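 Note: lck was assayed as one member of a kinase panel.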
Assay [17] deals with Serine/threonine-protein kinase pim-1 (Homo sapiens, UniProt P11309). In kind it is functional.
In the next assay the target is Aurora kinase A (Homo sapiens, UniProt O14965). In kind it is functional.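 Note: value from the Navigating the Kinome kinase panel profiling, panel entry STK6.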
The target in assay [18] is Mast/stem cell growth factor receptor Kit (Homo sapiens, UniProt P10721). In kind it is functional.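 Note: KIT entry within a kinase panel assay.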
The next assay deals with LIM domain kinase 1 (Homo sapiens, UniProt P53667). Description: Navigating the Kinome. Panel member name: LIMK1. It is filed as functional.
For assay [19], the target named is Testis-specific serine/threonine-protein kinase 1 (Homo sapiens, UniProt Q9BXA7). It is filed as functional.
Assay [20] concerns the target Homeodomain-interacting protein kinase 2 (Homo sapiens, UniProt Q9H2X6). In kind it is functional.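 Note: measured within a kinome-wide kinase profiling panel, HIPK2 being one panel member.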
For assay [21], the target named is Mitogen-activated protein kinase 13 (Homo sapiens, UniProt O15264). It is filed as functional.
Assay [22] has as its target Serine/threonine-protein kinase pim-3 (Homo sapiens, UniProt Q86V86). It is filed as functional.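 Note: value obtained as one member of a broad kinase panel profiling effort.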
Assay [23] deals with Protein kinase C iota type (Homo sapiens, UniProt P41743). In kind it is functional.
For assay [24], the target named is Platelet-derived growth factor receptor alpha (Homo sapiens, UniProt P16234). Description: Navigating the Kinome. Panel member name: PDGFRA. In kind it is functional.
Assay [25] addresses 3-phosphoinositide-dependent protein kinase 1 (Homo sapiens, UniProt O15530). It is filed as functional.
Assay [26] has as its target Cyclin-dependent kinase 8 (Homo sapiens, UniProt P49336). Description: Navigating the Kinome. Panel member name: CDK8. In kind it is functional.
In assay [27] the target is Cyclin-dependent kinase 7 (Homo sapiens, UniProt P50613). It is filed as functional.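 Note: value comes from a kinome-wide kinase profiling panel in which CDK7 is one member.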
Assay [28] concerns the target Glycogen synthase kinase-3 beta (Homo sapiens, UniProt P49841). In kind it is functional.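 Note: value comes from a broad kinome profiling panel, with GSK3B as the panel member.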
Assay [29] addresses Receptor tyrosine-protein kinase erbB-4 (Homo sapiens, UniProt Q15303). In kind it is functional.
Assay [30] deals with Serine/threonine-protein kinase MRCK alpha (Homo sapiens, UniProt Q5VT25). It is filed as functional.
Assay [31] has as its target Dual specificity mitogen-activated protein kinase kinase 2 (Homo sapiens, UniProt P36507). Description: Navigating the Kinome. Panel member name: MAP2K2. In kind it is functional.
Assay [32] addresses Mitogen-activated protein kinase 14 (Homo sapiens, UniProt Q16539). It is filed as functional.
Assay [33] has as its target Tyrosine-protein kinase FRK (Homo sapiens, UniProt P42685). In kind it is functional.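 Note: FRK tested as one member of a kinome panel.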
Assay [34] concerns the target Serine/threonine-protein kinase 3 (Homo sapiens, UniProt Q13188). In kind it is functional.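 Note: measured as one member of a kinome-wide kinase panel.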

This is an account of results in ChEMBL document CHEMBL1201862, “PubChem BioAssay data set” (2004).

Structures can show the parent of a compound that is named as a salt. The source made the active and inactive calls.

Mitogen-activated protein kinase 14, sequence (Q16539 whole entry): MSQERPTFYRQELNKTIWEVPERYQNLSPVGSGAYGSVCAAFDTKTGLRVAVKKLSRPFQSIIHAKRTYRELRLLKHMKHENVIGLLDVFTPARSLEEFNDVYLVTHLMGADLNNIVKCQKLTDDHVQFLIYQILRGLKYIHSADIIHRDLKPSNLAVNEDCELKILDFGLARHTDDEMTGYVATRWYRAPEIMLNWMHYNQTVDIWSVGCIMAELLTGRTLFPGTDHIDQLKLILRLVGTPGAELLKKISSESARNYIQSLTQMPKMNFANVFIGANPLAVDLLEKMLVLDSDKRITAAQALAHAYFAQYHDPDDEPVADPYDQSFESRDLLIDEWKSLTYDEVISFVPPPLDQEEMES
3-phosphoinositide-dependent protein kinase 1, sequence (O15530 whole entry): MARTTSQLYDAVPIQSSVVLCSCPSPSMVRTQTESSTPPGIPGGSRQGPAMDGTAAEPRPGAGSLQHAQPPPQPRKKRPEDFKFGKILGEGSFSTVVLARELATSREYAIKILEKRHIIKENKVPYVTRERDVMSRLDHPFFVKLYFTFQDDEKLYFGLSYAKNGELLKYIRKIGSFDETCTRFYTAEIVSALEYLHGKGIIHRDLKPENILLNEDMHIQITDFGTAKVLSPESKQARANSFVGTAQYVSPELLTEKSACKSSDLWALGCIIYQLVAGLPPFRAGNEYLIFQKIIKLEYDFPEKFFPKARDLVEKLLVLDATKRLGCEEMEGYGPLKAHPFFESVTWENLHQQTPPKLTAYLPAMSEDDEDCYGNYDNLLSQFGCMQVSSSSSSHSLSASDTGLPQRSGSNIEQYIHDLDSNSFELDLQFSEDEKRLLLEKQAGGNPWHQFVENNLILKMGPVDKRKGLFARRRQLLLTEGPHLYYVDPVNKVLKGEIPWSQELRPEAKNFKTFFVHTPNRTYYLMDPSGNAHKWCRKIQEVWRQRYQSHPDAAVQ
SUMO-activating enzyme, sequence (Q9UBE0 whole entry): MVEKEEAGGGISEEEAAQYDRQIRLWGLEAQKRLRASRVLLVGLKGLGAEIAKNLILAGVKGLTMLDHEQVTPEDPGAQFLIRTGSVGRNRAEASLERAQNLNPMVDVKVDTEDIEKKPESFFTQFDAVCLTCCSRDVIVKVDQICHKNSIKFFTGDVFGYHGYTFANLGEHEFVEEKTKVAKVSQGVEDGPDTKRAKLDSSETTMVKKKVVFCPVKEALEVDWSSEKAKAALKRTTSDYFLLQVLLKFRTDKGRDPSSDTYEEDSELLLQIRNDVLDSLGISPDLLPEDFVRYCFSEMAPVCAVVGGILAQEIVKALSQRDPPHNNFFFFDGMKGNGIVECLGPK
SUMO-activating enzyme, sequence (Q9UBT2 whole entry): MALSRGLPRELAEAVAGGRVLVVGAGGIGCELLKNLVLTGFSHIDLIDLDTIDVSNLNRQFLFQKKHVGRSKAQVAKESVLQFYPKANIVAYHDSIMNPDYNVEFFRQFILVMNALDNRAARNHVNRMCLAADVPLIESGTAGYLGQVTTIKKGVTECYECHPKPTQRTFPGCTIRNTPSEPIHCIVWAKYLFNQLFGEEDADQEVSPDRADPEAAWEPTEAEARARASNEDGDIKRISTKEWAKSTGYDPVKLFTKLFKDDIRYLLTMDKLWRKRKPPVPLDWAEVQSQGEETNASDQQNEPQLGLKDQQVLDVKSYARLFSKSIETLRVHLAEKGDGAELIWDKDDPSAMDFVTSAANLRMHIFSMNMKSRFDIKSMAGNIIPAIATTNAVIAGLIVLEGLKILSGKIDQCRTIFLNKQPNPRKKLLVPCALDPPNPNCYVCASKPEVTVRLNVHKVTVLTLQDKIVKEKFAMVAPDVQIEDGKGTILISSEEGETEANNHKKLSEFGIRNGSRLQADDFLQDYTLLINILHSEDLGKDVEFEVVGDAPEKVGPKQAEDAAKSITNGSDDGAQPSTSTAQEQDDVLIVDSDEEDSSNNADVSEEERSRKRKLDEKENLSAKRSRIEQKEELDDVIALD
RAC-gamma serine/threonine-protein kinase, sequence (Q9Y243 whole entry): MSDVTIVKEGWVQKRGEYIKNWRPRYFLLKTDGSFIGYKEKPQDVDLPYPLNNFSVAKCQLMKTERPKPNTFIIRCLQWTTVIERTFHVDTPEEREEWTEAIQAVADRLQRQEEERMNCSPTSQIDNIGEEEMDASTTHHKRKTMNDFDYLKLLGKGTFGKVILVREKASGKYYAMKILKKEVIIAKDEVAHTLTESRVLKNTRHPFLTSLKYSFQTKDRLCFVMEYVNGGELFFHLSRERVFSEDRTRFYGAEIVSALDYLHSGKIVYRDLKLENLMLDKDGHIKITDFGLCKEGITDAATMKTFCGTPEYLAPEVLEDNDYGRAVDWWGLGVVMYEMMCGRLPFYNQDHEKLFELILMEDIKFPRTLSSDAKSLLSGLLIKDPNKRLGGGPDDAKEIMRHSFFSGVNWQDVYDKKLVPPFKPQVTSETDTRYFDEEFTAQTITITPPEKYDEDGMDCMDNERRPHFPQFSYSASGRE
Intestinal-type alkaline phosphatase (Mus musculus, UniProt P24822), sequence (P24822 whole entry): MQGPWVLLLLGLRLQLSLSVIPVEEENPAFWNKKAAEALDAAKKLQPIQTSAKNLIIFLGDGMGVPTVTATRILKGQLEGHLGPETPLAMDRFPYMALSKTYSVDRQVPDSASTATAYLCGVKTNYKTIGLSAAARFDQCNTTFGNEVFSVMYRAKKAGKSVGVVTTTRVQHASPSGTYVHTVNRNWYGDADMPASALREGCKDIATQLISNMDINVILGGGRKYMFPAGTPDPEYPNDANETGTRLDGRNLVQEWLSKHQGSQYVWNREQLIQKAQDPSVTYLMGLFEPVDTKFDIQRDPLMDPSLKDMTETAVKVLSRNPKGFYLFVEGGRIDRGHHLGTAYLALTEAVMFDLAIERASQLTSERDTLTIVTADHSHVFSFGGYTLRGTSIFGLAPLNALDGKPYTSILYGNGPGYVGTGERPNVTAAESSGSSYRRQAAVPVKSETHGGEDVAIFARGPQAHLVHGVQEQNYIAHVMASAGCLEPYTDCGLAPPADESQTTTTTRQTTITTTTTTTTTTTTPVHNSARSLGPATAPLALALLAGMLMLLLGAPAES
Cyclin-dependent kinase 8, sequence (P49336 whole entry): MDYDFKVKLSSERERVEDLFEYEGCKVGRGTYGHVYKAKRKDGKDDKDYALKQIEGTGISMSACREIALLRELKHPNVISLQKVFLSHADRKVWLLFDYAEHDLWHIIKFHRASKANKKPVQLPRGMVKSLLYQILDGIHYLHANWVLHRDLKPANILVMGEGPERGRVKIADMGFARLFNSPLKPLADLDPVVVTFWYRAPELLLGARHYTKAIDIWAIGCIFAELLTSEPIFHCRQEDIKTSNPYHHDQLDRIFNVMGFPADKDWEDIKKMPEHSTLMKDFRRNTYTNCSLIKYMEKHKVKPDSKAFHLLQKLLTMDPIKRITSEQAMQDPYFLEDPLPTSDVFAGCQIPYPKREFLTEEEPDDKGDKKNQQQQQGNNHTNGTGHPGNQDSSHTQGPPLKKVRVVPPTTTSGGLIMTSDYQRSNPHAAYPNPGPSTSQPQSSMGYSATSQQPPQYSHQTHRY
Mitogen-activated protein kinase 13, sequence (O15264 whole entry): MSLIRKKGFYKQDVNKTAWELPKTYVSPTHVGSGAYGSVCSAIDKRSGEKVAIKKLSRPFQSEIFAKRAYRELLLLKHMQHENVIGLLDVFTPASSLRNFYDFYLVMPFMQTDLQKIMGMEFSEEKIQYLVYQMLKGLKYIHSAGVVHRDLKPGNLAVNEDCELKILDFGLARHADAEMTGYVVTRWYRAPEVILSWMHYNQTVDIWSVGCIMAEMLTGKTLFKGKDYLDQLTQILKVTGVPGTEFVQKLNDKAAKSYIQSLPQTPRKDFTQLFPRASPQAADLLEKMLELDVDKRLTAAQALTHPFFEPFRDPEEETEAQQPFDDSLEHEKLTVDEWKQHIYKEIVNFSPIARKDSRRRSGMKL
Serine/threonine-protein kinase TBK1, sequence (Q9UHD2 whole entry): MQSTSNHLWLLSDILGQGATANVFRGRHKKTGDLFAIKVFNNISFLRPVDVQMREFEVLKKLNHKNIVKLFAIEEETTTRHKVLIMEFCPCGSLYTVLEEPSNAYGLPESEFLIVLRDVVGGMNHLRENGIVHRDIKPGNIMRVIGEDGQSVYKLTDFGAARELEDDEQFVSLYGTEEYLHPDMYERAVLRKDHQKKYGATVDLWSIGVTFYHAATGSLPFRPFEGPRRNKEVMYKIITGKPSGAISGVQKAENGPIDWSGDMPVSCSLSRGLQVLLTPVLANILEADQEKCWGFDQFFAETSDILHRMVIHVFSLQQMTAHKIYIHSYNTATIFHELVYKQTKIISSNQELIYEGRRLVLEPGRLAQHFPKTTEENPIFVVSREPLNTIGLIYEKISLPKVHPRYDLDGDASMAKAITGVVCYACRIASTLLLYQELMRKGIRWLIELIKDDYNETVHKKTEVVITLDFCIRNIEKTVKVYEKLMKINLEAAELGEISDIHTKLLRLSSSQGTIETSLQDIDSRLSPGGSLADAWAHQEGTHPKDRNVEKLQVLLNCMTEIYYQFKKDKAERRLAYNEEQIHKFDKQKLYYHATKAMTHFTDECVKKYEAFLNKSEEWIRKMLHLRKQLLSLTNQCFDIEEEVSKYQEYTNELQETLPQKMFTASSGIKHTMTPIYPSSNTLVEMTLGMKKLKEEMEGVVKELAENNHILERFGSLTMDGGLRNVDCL
Serine/threonine-protein kinase pim-1, sequence (P11309 whole entry): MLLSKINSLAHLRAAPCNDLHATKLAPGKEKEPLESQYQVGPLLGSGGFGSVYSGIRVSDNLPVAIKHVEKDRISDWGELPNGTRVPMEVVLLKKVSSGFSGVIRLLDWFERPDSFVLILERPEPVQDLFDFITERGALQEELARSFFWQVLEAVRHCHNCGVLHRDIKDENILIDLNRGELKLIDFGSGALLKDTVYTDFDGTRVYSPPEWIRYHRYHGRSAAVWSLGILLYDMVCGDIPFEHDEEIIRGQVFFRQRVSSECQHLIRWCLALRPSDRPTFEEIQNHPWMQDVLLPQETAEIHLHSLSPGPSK

On to `CCC(C)n1c(NC(=O)c2ccccc2)c(C#N)c2nc3ccccc3nc21` (centres undefined), for which the IC50 – broadly, the concentration needed to halve the response being measured – at SUMO-activating enzyme is 3.51 µM (active). In assay [1], the EC50 (usually the concentration needed to bring the measured effect to its halfway point) is 4.6 µM (active).

As to `CCN1/C(=C\c2ccc3ccccc3[n+]2CC)Sc2cc(C)ccc21`, the EC50 in assay [2] is 15.7 µM (active); in assay [3] it was > 12 µM (not active). Also, the IC50 in assay [4] was 20.8 µM (active); in assay [5], 23.5 µM (active); in the assay with Jurkat, 15.5 µM (active); in [6] it was 2.75 µM (active).

For `CCCCCCCCCCOC(=O)C[n+]1c(COc2ccc(C)cc2)n(C)c2ccccc21`, the AC50 (usually the concentration giving half of the maximal activity seen) in the assay on INS1 is 3.4 µM (active).

For `O=C(CCl)Oc1ccc2occ(C(=O)c3cccs3)c2c1`, the IC50 in [7] is > 100 µM (active).

In the case of `CC[C@@H](CO)NC(=O)[C@@H]1C=C2c3cccc4c3c(cn4C)C[C@H]2N(C)C1` [METHYSERGIDE MALEATE], the EC50 in assay [8] is 1.07 µM (active).

`CN1CCN(c2nc(C3=C(c4c[nH]c5ccccc45)C(=O)NC3=O)c3ccccc3n2)CC1` [SOTRASTAURIN]: the Ki – broadly, a dissociation constant, usually derived from enzyme kinetics or from competition with a known ligand – in [9] is 0.000631 µM (active); in assay [10] it was 3.16 µM (active); in [11] it was > 3.16 µM (inactive); in assay [12], > 10 µM (inactive); in assay [13] it was 0.631 µM (active); in assay [14] it was > 2.51 µM (inactive). The Ki in assay [15] was > 1.58 µM (inactive); in [16], > 3.98 µM (inactive); in [17], 0.158 µM (active); on Aurora kinase A, > 1.58 µM (inactive); in assay [18], > 1.26 µM (inactive); on LIM domain kinase 1 it was > 3.16 µM (inactive). The Ki in assay [19] was > 1.58 µM (inactive); in assay [20], > 3.16 µM (inactive); in assay [21] it was > 7.94 µM (inactive); in assay [22] it was 0.316 µM (active); in [23], 0.398 µM (active); in assay [24], > 2.51 µM (inactive). In addition, the Ki in assay [25] was 1.58 µM (active); in assay [26], > 3.98 µM (inactive); in assay [27], > 3.98 µM (inactive); in assay [28], 0.2 µM (active); in assay [29] it was > 3.98 µM (inactive); in assay [30], > 10 µM (inactive). Also, the Ki in assay [31] is > 3.98 µM (inactive); in assay [32], > 3.98 µM (inactive); in assay [33], > 2.51 µM (inactive); in [34], 0.126 µM (active).
